“Also recorded” adds a separate entry of the source. Marks after values point to notes of the source that are not given here. Ends that are not written are not given here. * marks the point of attachment. FITC = O=C1OC2(c3ccc(O)cc3Oc3cc(O)ccc32)c2ccc(NC(=S)*)cc21

One series relates to C8161 xenografts. The series is described as follows: In vivo phage homing to C8161 xenograft tumors. The settings on record: for phage homing to C8161 tumors (in words): i.v. injected phage, C8161 xenograft mice. Also noted: species or system mouse. On the procedure:
(§1) The following cell lines were maintained in DMEM supplemented with 10% FCS: C8161 human melanoma, MDA-MB-435 human breast cancer, KRIB human osteosarcoma, and human prostate cancer cells PPC1, DU145. LNCaP human prostate cancer cell line was grown in RPMI 1640 medium with 10 mM HEPES, 1 mM sodium pyruvate and 1.5 g/L sodium bicarbonate supplemented with 10% FCS. M12 human prostate cancer cell line was cultured in RPMI 1640 with 5 μg/ml insulin-transferrin-sodium selenite (ITS), 2.5 μg/ml fungizone, 50 μg/ml gentamycin, 0.2 μM dexamethasone, 10 ng/ml epidermal growth factor (EGF), and 5% FCS (Bae et al., 1998). To produce tumors, nude BALB/c and C56BL/6 mice were subcutaneously (C8161, KRIB, and PPC1) or orthotopically ([…], PPC1, DU145, M12, and LNCaP) injected with 1×10^6 tumor cells. Transgenic mouse tumor models included TRAMP prostate cancer, MMTV-PyMT breast cancer, and K14-HPV16 cervical cancer. To initiate cervical carcinogenesis, female K14-HPV16 mice (Arbeit et al., 1994) were treated with 17β-estradiol (E2; (Arbeit et al., 1996; Giraudo et al., 2004). Briefly, one-month-old virgin female transgenic (heterozygous K14-HPV16, 1203#1) and nontransgenic (FVB/n) mice were anesthetized with isoflurane, and continuous release pellets that deliver E2 at doses of 0.05 mg over 60 days (Innovative Research of America, Sarasota, Fla., USA) were implanted subcutaneously in the dorsal back skin. Subsequent pellets were implanted at 3 and 5 months of age for a total of 6 months of hormone treatment. K14-HPV16 mice were maintained in the FVB/n background (FVB/n; The Jackson Laboratory). The mice were maintained in accordance with the University of California, San Francisco (UCSF) institutional guidelines governing the care of laboratory mice. The animal experimentation was approved by Animal Research Committees at UCSF or The Burnham Institute.
(§2) In vivo homing specificity of phage was tested as described (Hoffman, 2004). Briefly, mice bearing tumors were anesthetized and intravenously injected with 5×10^9 pfu of phage. After 7 min, the mice were perfused through the heart with PBS containing 0.5% BSA. The tumor and control organs were dissected from each mouse and the phage were rescued and tittered. For histology analysis, the mice were perfused with 4% PFA 30 min after the injection of phage. Tissues were embedded in Tissue-Tek O.C.T. and 5 μm sections were prepared for phage immunostaining.

Another series deals with KRIB xenografts. Nature of the series: In vivo phage homing to KRIB xenografts. Also on record: species or system mouse. The settings on record: for phage homing to KRIB xenografts (in words): i.v. injected phage. On the procedure: as §1, §2
The subject of another series is KRIB tumors. Nature of the series: Fluorescein-labeled LSD peptide homing to KRIB tumors. It is filed as in vivo, mouse. As to conditions: fluorescein-labeled peptide i.v. On the procedure: (§3) The frozen sections were prepared for immunohistological analysis.
The test system of series [1] is cell suspensions prepared from C8161 tumors. Nature of the series: Phage binding to cell suspensions prepared from C8161 tumors. It counts as cell-based, mouse. The settings on record: phage clone, ex vivo.
Series [2] has as its system MDA-MB-435 orthotopic xenografts. Nature of the series: In vivo phage homing to MDA-MB-435 orthotopic xenografts. Also on record: species or system mouse. On the procedure: as §1, §2
Series [3] deals with PPC1 orthotopic xenografts. Nature of the series: In vivo phage homing to PPC1 orthotopic xenografts. Also noted: species or system mouse. On the procedure: as §1, §2
The subject of the next series is TRAMP prostate tumors. The series is described as follows: In vivo phage homing to TRAMP prostate tumors. Also on record: species or system mouse. On the procedure: as §1, §2
The test system of another series is C8161 tumors. Nature of the series: Tissue distribution of fluorescein-conjugated LSD peptide in C8161 tumor mice. Also noted: fluorescence in all other tissues except tumors: dose or concentration left out as unconfirmed. The settings on record: for fluorescent peptide in C8161 tumors and control organs: fluorescein-conjugate peptide i.v., 2 hrs circulation. It is filed as in vivo, mouse. On the procedure:
as §3

A further series relates to MMTV-PyMT breast tumors. The series is described as follows: In vivo phage homing to MMTV-PyMT breast tumors. Also on record: species or system mouse. On the procedure: as §1, §2
The next series deals with K14-HPV16 skin cancer. The series is described as follows: In vivo homing to K14-HPV16 skin cancer. Also noted: species or system mouse. On the procedure: as §1, §2
A further series deals with T1, VEGFR2 (Homo sapiens, UniProt P35968).
T1 construct: expressed in transfected cells; host or cells: 293T cells, transient transfection with FuGene 6
T1 sequence (P35968 20-1356, species assumed): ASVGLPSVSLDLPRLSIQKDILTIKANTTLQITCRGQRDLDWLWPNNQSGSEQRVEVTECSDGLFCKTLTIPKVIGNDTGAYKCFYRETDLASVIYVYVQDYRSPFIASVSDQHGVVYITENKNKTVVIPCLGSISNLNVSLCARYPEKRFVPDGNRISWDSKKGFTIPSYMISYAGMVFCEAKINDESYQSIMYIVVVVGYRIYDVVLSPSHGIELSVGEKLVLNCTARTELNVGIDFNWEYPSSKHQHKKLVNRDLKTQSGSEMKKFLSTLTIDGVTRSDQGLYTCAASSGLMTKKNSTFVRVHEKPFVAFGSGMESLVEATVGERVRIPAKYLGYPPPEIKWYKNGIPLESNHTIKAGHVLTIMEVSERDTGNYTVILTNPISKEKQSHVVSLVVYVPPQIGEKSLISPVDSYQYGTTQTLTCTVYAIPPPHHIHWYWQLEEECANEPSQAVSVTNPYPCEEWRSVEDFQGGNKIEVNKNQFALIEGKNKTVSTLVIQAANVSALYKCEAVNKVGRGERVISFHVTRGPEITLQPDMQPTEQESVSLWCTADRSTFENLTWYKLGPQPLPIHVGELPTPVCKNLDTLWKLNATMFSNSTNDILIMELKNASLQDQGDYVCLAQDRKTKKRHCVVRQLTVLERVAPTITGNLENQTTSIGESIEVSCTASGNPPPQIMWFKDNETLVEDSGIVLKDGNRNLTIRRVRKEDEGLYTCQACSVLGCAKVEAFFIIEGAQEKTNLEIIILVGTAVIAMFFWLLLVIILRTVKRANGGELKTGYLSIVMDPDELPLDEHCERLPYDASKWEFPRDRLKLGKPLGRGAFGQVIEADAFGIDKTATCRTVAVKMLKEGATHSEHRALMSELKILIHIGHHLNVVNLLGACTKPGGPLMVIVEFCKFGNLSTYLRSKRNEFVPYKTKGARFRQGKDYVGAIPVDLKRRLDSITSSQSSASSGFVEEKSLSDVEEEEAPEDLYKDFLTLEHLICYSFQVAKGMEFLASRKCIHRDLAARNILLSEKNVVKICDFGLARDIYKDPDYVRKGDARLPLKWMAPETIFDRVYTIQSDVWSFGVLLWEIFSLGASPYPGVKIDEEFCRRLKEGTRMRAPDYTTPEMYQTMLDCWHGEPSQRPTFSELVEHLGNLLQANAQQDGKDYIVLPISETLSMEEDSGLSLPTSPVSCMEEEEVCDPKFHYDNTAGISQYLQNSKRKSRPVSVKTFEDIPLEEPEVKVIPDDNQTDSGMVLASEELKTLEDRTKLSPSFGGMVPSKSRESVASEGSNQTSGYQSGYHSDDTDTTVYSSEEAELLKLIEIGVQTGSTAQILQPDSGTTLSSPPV
Nature of the series: Phage binding to VEGFR2-transfected 293T cells. On the procedure:
The 293T cells were transfected with plasmids encoding CXCR4 (Helbig et al., 2003) or VEGFR2 (Borges et al., 2000) using FuGene 6 transfection reagent (Roche Diagnostics, Indianapolis, Ind.). Briefly, plasmid (10 μg) was mixed with 900 μl of serumfree DMEM and 50 μl of FuGene and incubated for 15 min at room temperature before adding the mixture to the cells. The cells were detached using EDTA after 48 hrs post transfection and washed with PBS containing 1% BSA. Phage (5×10^9 pfu) were incubated with the transfected cells and bound phage were rescued and titrated. For competitive binding assay, the cognate peptide (150 μg/ml) or antibody (50 μg/ml) was added during incubating of the phage with cells. Targeted proapoptotic peptide treatment of tumor-bearing mice Prostate cancer model. Orthotopic xenografted prostate tumors were established by injecting 1×10^6 PPC1 human prostate cancer cells into the mouse prostate. Fifteen days post inoculation, the mice were intravenously injected with D(KLAKLAK)2-CREAGRKAC (SEQ ID NO:41), an equimolar mixture of D(KLAKLAK)2 (SEQ ID NO:19) and CREAGRKAC (SEQ ID NO:6), or PBS. Biweekly injections of 100 μg/dose/mouse were given for three weeks. Melanoma model. […] The mice were monitored for weight loss, and tumors were dissected and weighed at the termination of the experiment. […]

The next series addresses T2, CXCR4 (Homo sapiens, UniProt P61073).
T2 construct: expressed in transfected cells; host or cells: 293T cells, transient transfection with FuGene 6
Nature of the series: Phage binding to CXCR4-transfected 293T cells. On the procedure: The 293T cells were transfected with plasmids encoding CXCR4 (Helbig et al., 2003) or VEGFR2 (Borges et al., 2000) using FuGene 6 transfection reagent (Roche Diagnostics, Indianapolis, Ind.). Briefly, plasmid (10 μg) was mixed with 900 μl of serumfree DMEM and 50 μl of FuGene and incubated for 15 min at room temperature before adding the mixture to the cells. The cells were detached using EDTA after 48 hrs post transfection and washed with PBS containing 1% BSA. Phage (5×10^9 pfu) were incubated with the transfected cells and bound phage were rescued and titrated. For competitive binding assay, the cognate peptide (150 μg/ml) or antibody (50 μg/ml) was added during incubating of the phage with cells. Targeted proapoptotic peptide treatment of tumor-bearing mice Prostate cancer model. Orthotopic xenografted prostate tumors were established by injecting 1×10^6 PPC1 human prostate cancer cells into the mouse prostate. Fifteen days post inoculation, the mice were intravenously injected with D(KLAKLAK)2-CREAGRKAC (SEQ ID NO:41), an equimolar mixture of D(KLAKLAK)2 (SEQ ID NO:19) and CREAGRKAC (SEQ ID NO:6), or PBS. Biweekly injections of 100 μg/dose/mouse were given for three weeks. Melanoma model. Nude BALB/c mice were subcutaneously injected with 1×10^6 C8161 human melanoma cells. Treatment started when mean tumor volumes reached about 100 mm3. Mice with size-matched tumors were randomized into three groups. The therapeutic group received a chimera of tumor homing peptide with the proapoptotic motif (D(KLAKLAK)2-CLSDCGKRKC; SEQ ID NO:42). The control groups received an equimolar mixture of CLSDGKRKC (SEQ ID NO:4) and D(KLAKLAK)2 (SEQ ID NO:19), or PBS alone. The tumor-bearing mice were intravenously injected with 200 μg/dose/mouse once a week for three weeks. The mice were monitored for weight loss, and tumors were dissected and weighed at the termination of the experiment. Histological analysis was performed to evaluate the density of tumor lymphatics and blood vessels. The animal experiments reported here were approved by The Burnham Institute Animal Research Committee.

In series [4] the test system is the other tumors, including the skin cancers. Nature of the series: Fluorescein-labeled LSD peptide homing to other tumors. It is filed as in vivo, mouse. The settings on record: fluorescein-labeled peptide i.v. On the procedure: as §3
The mark [5] stands for this setting: phage homing in vivo, C8161 (s.c.) xenografts.
The mark [6] stands for this setting: phage homing in vivo, KRIB xenografts.
Where [7] appears, read: phage homing in vivo, MDA-MB-435 orthotopic xenografts.
Where [8] appears, read: phage homing in vivo, PPC1 orthotopic xenografts.
Where [9] appears, read: phage homing in vivo, TRAMP prostate tumors.
Where [10] appears, read: fluorescein-conjugate peptide, C8161 tumor sections.
[11] abbreviates: phage homing in vivo, MMTV-PyMT breast tumors.
Setting [12] is: phage homing in vivo, K14-HPV16 skin cancer.

T2 sequence (P61073 whole entry, species assumed): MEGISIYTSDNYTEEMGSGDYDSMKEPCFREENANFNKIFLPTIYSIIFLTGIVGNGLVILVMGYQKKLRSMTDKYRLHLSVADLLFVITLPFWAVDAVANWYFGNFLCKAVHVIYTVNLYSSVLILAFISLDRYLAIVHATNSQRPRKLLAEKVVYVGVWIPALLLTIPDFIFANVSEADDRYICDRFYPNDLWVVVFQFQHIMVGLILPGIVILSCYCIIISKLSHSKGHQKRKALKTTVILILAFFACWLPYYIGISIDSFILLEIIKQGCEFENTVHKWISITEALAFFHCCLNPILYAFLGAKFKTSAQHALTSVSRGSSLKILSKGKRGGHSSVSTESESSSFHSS

Consider “CLSDGKRKC [homing peptide for C8161 melanoma lymphatics]”, for which the “phage homing to C8161 tumors (in words)” value in the series with C8161 xenografts was “Robust phage homing”; in the series with C8161 xenografts (listed as CLSDGKRKC), “homed selectively to the tumors”; in the series on C8161 xenografts (listed as LSD phage), “significantly higher than in normal tissues”. The “relative efficiency of tumor homing of the two phage” value in the series with C8161 xenografts (i.v. injection, nude mice bearing C8161 tumors) is given as “about twice as efficient as CLDGGRPKC”. In addition, the “Fold over control phage” value was 39 fold in the series with C8161 xenografts (setting [5]); 7^‡ fold in the series on KRIB xenografts (setting [6]); 3 fold in series [2] (setting [7]); 3 fold in series [3] (setting [8]); 1 fold in the series with TRAMP prostate tumors (setting [9]); 3 fold in the series on MMTV-PyMT breast tumors (setting [11]). The “Fold over control phage” value with K14-HPV16 skin cancer (setting [12]) is on record as 5 fold. Also, the “Specific Homing” value is on record as “Yes” in the series on C8161 xenografts (setting [5]); “Yes” with KRIB xenografts (setting [6]); “No” in series [2] (setting [7]); “No” in series [3] (setting [8]); “No” in the series on TRAMP prostate tumors (setting [9]); “No” in the series on MMTV-PyMT breast tumors (setting [11]). Moreover, the “Specific Homing” value in the series on K14-HPV16 skin cancer (setting [12]) is recorded as “No”. In addition, the “phage homing to KRIB xenografts (in words)” value with KRIB xenografts is “slightly positive”; in the series on KRIB xenografts (listed as LSD phage), “possible low-level homing”. The “fluorescent peptide homing to KRIB tumors (in words)” value in the series on KRIB tumors was “slightly positive”. In addition, the “binding to C8161 tumor cell suspensions relative to control phage” value in series [1] worked out at 100 fold. For the same substance, the “binding to cell suspensions prepared from C8161 tumors (in words)” value in series [1] was “bound to cell suspensions prepared from C8161 tumors”. In addition, the “phage homing to MDA-MB-435 tumors (in words)” value in series [2] (i.v. injected phage, listed as LSD phage) is recorded as “did not appreciably home”. In addition, the “phage homing to PPC1 orthotopic xenografts (in words)” value in series [3] (i.v. injected phage) is given as “did not appreciably home”. Also, in the series with TRAMP prostate tumors (i.v. injected phage), the “phage homing to TRAMP prostate tumors (in words)” value is “did not appreciably home”. For the same substance, in the series with C8161 tumors, the “fluorescent peptide in C8161 tumors and control organs” value is on record as “detected within the tumors, but not in control organs”. The “co-localization with blood vessel markers MECA-32 and CD31” value with C8161 tumors (setting [10]) was “no co-localization”. Besides, in the series with C8161 tumors (setting [10]), the “co-localization with lymphatic vessel markers podoplanin, Prox-1, LYVE-1, VEGFR3” value is on record as “co-localization of the LSD fluorescence with them”. In the series with C8161 tumors (fluorescein-conjugate peptide, C8161 tumors), the “lymphatic vessels positive for the peptide that were also positive for podoplanin” value is 85%. Further, the “phage homing to MMTV-PyMT breast tumors (in words)” value with MMTV-PyMT breast tumors (i.v. injected phage) is “did not appreciably home”. Further, the “homing to K14-HPV16 skin cancers (in words)” value with K14-HPV16 skin cancer (i.v. injection, K14-HPV16 mice) is “possible low-level homing”. For the same substance, the “phage binding to VEGFR2-transfected 293T cells (in words)” value with VEGFR2 was “not to cells transfected with VEGFR2”. In addition, the “phage binding to CXCR4-transfected 293T cells (in words)” value with CXCR4 (293T cells) was “binds to 293T cells transfected with CXCR4”. For the same substance, the “phage binding to CXCR4-transfected 293T cells versus mock- or VEGFR2-transfected cells” value with CXCR4 (293T cells) was found to be 16 fold. Further, the “inhibition of LSD phage binding to CXCR4-transfected 293T cells” value in the series with CXCR4 (peptide 150 μg/ml co-incubated with phage, listed as LSD peptide) is “inhibits LSD-phage binding; also recorded: inhibited the binding”.
“FITC-LSD: fluorescein-conjugated LSD peptide (CLSDGKRKC) ({FITC}-CLSDGKRKC; cysteine pairing not given here)”: the “fluorescent peptide homing to KRIB tumors (in words)” value with KRIB tumors is given as “weakly positive”. Besides, in [4], the “fluorescent peptide homing to the other tumors, including skin cancers” value is given as “negative”. Moreover, the fluorescence in kidneys entry in the series on C8161 tumors (FITC-LSD (150 mg) i.v., 2 hrs) is “A few spots of LSD fluorescence”. In addition, the “fluorescence in all other tissues except tumors” value with C8161 tumors (FITC-LSD i.v., 2 hrs) is listed as “negative”. Moreover, the “fluorescent peptide in C8161 tumors and control organs” value in the series with C8161 tumors was “Strong LSD peptide fluorescence”.
